{"source": "paper PMC4715436", "about": "“The role of 2,4-dihydroxyquinoline (DHQ) in Pseudomonas aeruginosa pathogenicity” (PeerJ, 2016)", "key": {"PqsR [1]": {"target": "T1, PqsR (Pseudomonas aeruginosa, UniProt Q9I4X0)", "assay": "STD-NMR titration ([…] to […] DHQ, […] SUMO-PqsR-C87); EMSA also gave an apparent Kd of […]", "assay_type": "binding", "design": "gene mvfR"}, "PqsR [2]": {"target": "T1, PqsR", "assay": "EMSA with lysate of E. coli Rosetta expressing His-SUMO-PqsR and biotinylated pqsA promoter DNA, semi-quantitative apparent Kd", "assay_type": "biochemical", "design": "gene mvfR; recombinant PqsR, N-terminal His-tagged SUMO fusion"}, "[3]": {"system": "His-SUMO-PqsR (Pseudomonas aeruginosa (PAO1?))", "assay": "EMSA"}}, "data": [{"molecule": "Oc1cc(O)c2ccccc2n1", "note": "[DHQ, 2,4-dihydroxyquinoline]", "values": [{"measurement": "Kd", "setting": "PqsR [1]", "result": "~0.45", "unit": "µM"}]}, {"molecule": "CCCCCCCc1[nH]c2ccccc2c(=O)c1O", "note": "[PQS, 2-heptyl-3-hydroxy-4-quinolone]", "values": [{"measurement": "Kd", "setting": "PqsR [2]", "result": 0.033, "unit": "µM"}]}, {"molecule": "Bio-pqsA (pqsA' promoter probe)", "values": [{"measurement": "binding signal (fraction free probe)", "setting": "[3]", "result": 0.0488}]}]}
